Measurements from patent US7595327B2, “Beta-sulfonamide hydroxamic acid inhibitors of tace/matrix metalloproteinase” (priority 2005, dated 2009).

Assays:
[1] = molecular target: T1, TACE (catalytic domain of the recombinant TACE protein) (Homo sapiens, UniProt P78536); assay: TACE FRET assay using TACE Cat; type: biochemical; conditions: FRET, pro-TNF-α substrate peptide; read-out: TACE IC50
T1 construct: The catalytic domain of the recombinant TACE protein was expressed and purified; made in house
Outline: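 Recombinant TACE catalytic domain (1 ug/ml) pre-incubated 10 min at room temperature with inhibitor in 50 mM Tris-HCl pH 7.4, 25 mM NaCl, 4% glycerol, 0.005% Brij 35; Abz/Dpa pro-TNF-α peptide substrate added, fluorescence (Ex 320/Em 420) followed 10 min; IC50 from initial rates by Hill fit.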

[2] = system: TNF-α secretion in Raw 264.7 cells; assay: Cell-based assay for inhibition of TNF-α secretion in Raw cells; conditions: Mus musculus, RAW264.7, LPS 100 ng/ml, 4 hr
Outline: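 Confluent Raw 264.7 cells were seeded overnight, refed, and pre-incubated 1 hr with compound (0.2% final DMSO), then stimulated with LPS at 100 ng/ml final for 4 hr at 37° C. Supernatant TNF-α measured by ELISA; % inhibition and IC50 by curve fitting.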

T1 sequence (P78536 223-474 limits assumed): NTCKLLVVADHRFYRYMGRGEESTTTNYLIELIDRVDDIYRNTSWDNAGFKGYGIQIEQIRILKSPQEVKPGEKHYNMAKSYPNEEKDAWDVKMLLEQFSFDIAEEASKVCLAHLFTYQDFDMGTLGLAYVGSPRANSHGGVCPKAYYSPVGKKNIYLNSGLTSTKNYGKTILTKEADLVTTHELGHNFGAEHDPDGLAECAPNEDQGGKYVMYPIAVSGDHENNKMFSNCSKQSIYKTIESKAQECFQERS

| Structure (SMILES) | IC50 [1] [nM] | IC50 [2] [nM] |
| --- | --- | --- |
| Cc1cc(COc2ccc(S(=O)(=O)N[C@@H]3CN(C(=O)NC(C)(C)C)CC[C@@H]3C(=O)NO)cc2)c2ccccc2n1 [Example 35, 3-[4-(2-Methyl-quinolin4-ylmethoxy)-benzenesulfonylamino]-piperidine-1,4-dicarboxylic acid 1-tert-butylamide 4-hydroxyamide] | 1.4 | 58 |
| Cc1cc(COc2ccc(S(=O)(=O)N[C@H]3COC[C@H]3C(=O)NO)cc2)c2ccccc2n1 (stereo in doubt) [Example 26, (3S,4R)-4-[4-(2-Methyl-quinolin-4-ylmethoxy)-benzenesulfonylamino]-tetrahydro-furan-3-carboxylic acid hydroxyamide] | 0.6 | 12 |
| CCNC(=O)N1C[C@H](C(=O)NO)[C@H](NS(=O)(=O)c2ccc(OCc3cc(C)nc4ccccc34)cc2)C1 (relative stereo) [Example 23, cis-1-Ethyl-N-hydroxy-4-[({4-[(2-methylquinolin-4-yl)methoxy]phenyl}sulfonyl)amino]pyrrolidine-1,3-dicarboxamide] | 1.3 | 51 |
| Cc1cc(COc2ccc(S(=O)(=O)N[C@@H]3CN(S(C)(=O)=O)C[C@@H]3C(=O)NO)cc2)c2ccccc2n1 (relative stereo) [Example 17, cis-N-Hydroxy-4-[({4-[(2-methylquinolin-4-yl)methoxy]phenyl}sulfonyl)amino]-1-(methylsulfonyl) pyrrolidine-3-carboxamide] | 0.6 | 24 |
| Cc1cc(COc2ccc(S(=O)(=O)N[C@@H]3CN(C=O)C[C@@H]3C(=O)NO)cc2)c2ccccc2n1 (relative stereo) [Example 20, cis-1-Formyl-N-hydroxy-4-[({4-[(2-methylquinolin-4-yl)methoxy]phenyl}sulfonyl)amino]pyrrolidine-3-carboxamide] | 1.1 | 20 |
| Cc1cc(COc2ccc(S(=O)(=O)N[C@@H]3CCC[C@@H]3C(=O)NO)cc2)c2ccccc2n1 [Example 13, (1S,2R)-N-Hydroxy-2-[({4-[(2-methylquinolin-4-yl)methoxy]phenyl}sulfonyl)amino]cyclopentanecarboxamide] | < 0.6 | 9 |
